Results taken from patent publication US20010021697A1, “METHODS AND COMPOSITIONS FOR THE TREATMENT OF MAMMALIAN INFECTIONS EMPLOYING MEDICAMENTS COMPRISING HYMENOPTERA VENOM, PROTEINAGEOUS OR POLYPEPTIDE COMPONENTS THEREOF, OR ANALOGUES OF SUCH PROTEINACEOUS OR POLYPEPTIDE COMPONENTS” (priority 1987, published 2001).

Tests used:
S. epidermidis = assay: Automated MIC assay (Sensititre) of antibiotics with and without HBV; assay type: cell-based; conditions: with vs without 4 ug/ml HBV
S. aureus [1] = assay: as above; assay type: cell-based; conditions: with vs without 4 ug/ml HBV
Streptococcus faecalis = assay: as above; assay type: cell-based; conditions: Streptococcus faecalis strain 81-; with vs without 4 ug/ml HBV
E. coli G1108E = assay: Checkerboard titration synergy assay of melittin analogues with polymyxin B; assay type: cell-based; conditions: for relative in vitro activity, place in ascending order: 5 ug/ml peptide with 6 units/ml polymyxin B, delay time until mid-log phase (FIG. 26)
[2] = Relative activity of analogues with respect to native melittin; assay type: cell-based
Procedure: Also some of then analogues mentioned above were tested to determine their relative activities with respect to native melittin. The relative activity is calculated as follows: [formula]

[3] = tested on: E. Coli strain No. G1108E; assay: Checkerboard titration synergy assay of natural melittin and analogue #6 with polymyxin B; assay type: cell-based; conditions: for synergistic activity with polymyxin B compared with natural melittin: E. coli, 10 ug peptide + 6 units polymyxin B
S. aureus [4] = assay: Equivalent doses of melittin fraction and whole honeybee venom with and without kanamycin (growth curves); assay type: cell-based; conditions: for MEAN A660: doses of what is present: KANA = 2.5, MEL = 1.6, HBV = 2 (ug/ml)
[5] = tested on: 30 random strains of bacteria; conditions: Sephadex G-50 purified melittin fraction; cited from earlier work
E. coli = assay: Automated MIC assay (Sensititre) of antibiotics with and without HBV; assay type: cell-based; conditions: with vs without 4 ug/ml HBV
[6] = S. aureus strain QC (printed 0C)
[7] = 0 hrs, doses of what is present: Polymyxin B 3 units, peptide 5 ug
[8] = 0 hrs, doses of what is present: Polymyxin B 6 units, peptide 10 ug
[9] = 2 hrs, doses of what is present: Polymyxin B 3 units, peptide 5 ug
[10] = 2 hrs, doses of what is present: Polymyxin B 6 units, peptide 10 ug
[11] = 4 hrs, doses of what is present: Polymyxin B 3 units, peptide 5 ug
[12] = 4 hrs, doses of what is present: Polymyxin B 6 units, peptide 10 ug
[13] = 6 hrs, doses of what is present: Polymyxin B 3 units, peptide 5 ug
[14] = 6 hrs, doses of what is present: Polymyxin B 6 units, peptide 10 ug
[15] = 8 hrs, doses of what is present: Polymyxin B 3 units, peptide 5 ug
[16] = 8 hrs, doses of what is present: Polymyxin B 6 units, peptide 10 ug
[17] = 12 hrs, doses of what is present: Polymyxin B 3 units, peptide 5 ug
[18] = 12 hrs, doses of what is present: Polymyxin B 6 units, peptide 10 ug

Substance | effect of 4 ug/ml HBV on the MIC of the antibiotic (S. epidermidis; S. epidermidis strain 5905) | effect of 4 ug/ml HBV on the MIC of the antibiotic (S. epidermidis; S. epidermidis strain 5907) | effect of 4 ug/ml HBV on the MIC of the antibiotic (S. epidermidis; S. epidermidis strain 7905) | effect of 4 ug/ml HBV on the MIC of the antibiotic (S. epidermidis; S. epidermidis strain 7908) | effect of 4 ug/ml HBV on the MIC of the antibiotic (S. epidermidis; S. epidermidis strain 39817) | effect of 4 ug/ml HBV on the MIC of the antibiotic (S. aureus [1]; S. aureus strain 51072) | effect of 4 ug/ml HBV on the MIC of the antibiotic (S. aureus [1]; [6]) | effect of 4 ug/ml HBV on the MIC of the antibiotic (Streptococcus faecalis) | relative in vitro activity, place in ascending order (E. coli G1108E) | Relative Activity [2] | Average optical densities (OD660) [3, 7] | Average optical densities (OD660) [3, 8] | Average optical densities (OD660) [3, 9] | Average optical densities (OD660) [3, 10] | Average optical densities (OD660) [3, 11] | Average optical densities (OD660) [3, 12] | Average optical densities (OD660) [3, 13] | Average optical densities (OD660) [3, 14] | Average optical densities (OD660) [3, 15] | Average optical densities (OD660) [3, 16] | further results
Penicillin | − (A (−) indicates a MIC decrease of less than two dilution steps.) | − (A (−) indicates a MIC decrease of less than two dilution steps.) | + (A (+) indicates a MIC decrease greater than or equal to two dilution steps.) | + (A (+) indicates a MIC decrease greater than or equal to two dilution steps.) | + (A (+) indicates a MIC decrease greater than or equal to two dilution steps.) | +^6 (A (+) indicates a MIC decrease greater than or equal to two dilution steps.) | −^5 (A (−) indicates a MIC decrease of less than two dilution steps.) | − (A (−) indicates a MIC decrease of less than two dilution steps.) |  |  |  |  |  |  |  |  |  |  |  |  | 
H-Gly-Ile-Gly-Ala-Val-Leu-Lys-Val-Leu-Thr-Thr-Gly-Leu-Pro-Ala-Leu-Ile-Ser-Trp-Ile-Lys-Lys-Lys-Lys-Gln-Gln-NH2 (H-GIGAVLKVLTTGLPALISWIKKKKQQ-NH2) [Analogue #6] |  |  |  |  |  |  |  |  | 4 | 100% | .013 | .013 | .072 | .072 | .831 | .824 | 1.07 | 1.09 | 1.09 | 1.11 | Average optical densities (OD660) [3, 17]: 1.16; Average optical densities (OD660) [3, 18]: 1.17; synergistic activity with polymyxin B compared with natural melittin [3]: At no time could a significant difference be detected; synergistic activity with polymyxin B compared with natural melittin ([3]; listed as Analogue No. 6): activity equivalent to natural melittin; difference between the specific activities of melittin versus analogue #6 ([3]; estimated from Table 11): less than 10%
Venomycin | − (A (−) indicates a MIC decrease of less than two dilution steps.) | − (A (−) indicates a MIC decrease of less than two dilution steps.) | − (A (−) indicates a MIC decrease of less than two dilution steps.) | + (A (+) indicates a MIC decrease greater than or equal to two dilution steps.) | − (A (−) indicates a MIC decrease of less than two dilution steps.) | +^ (A (+) indicates a MIC decrease greater than or equal to two dilution steps.) | +^ (A (+) indicates a MIC decrease greater than or equal to two dilution steps.) | − (A (−) indicates a MIC decrease of less than two dilution steps.) |  |  |  |  |  |  |  |  |  |  |  |  | 
Melittin (1-20)-Lys-Arg-Lys-Arg-Gln-Gln-NH2. |  |  |  |  |  |  |  |  | 2 |  | .013 | .013 | .072 | .072 | .833 | .0827 | 1.10 | 1.09 | 1.11 | 1.10 | MEAN A660 (S. aureus [4]; T0): 0.021; MEAN A660 (S. aureus [4]; T2): 0.080; MEAN A660 (S. aureus [4]; T4): 0.374; MEAN A660 (S. aureus [4]; T6): 1.099; MEAN A660 (S. aureus [4]; T8): 1.288; MEAN A660 (S. aureus [4]; T12): 1.339; MEAN A660 (S. aureus [4]; T24): 1.415; antibacterial activity of the melittin fraction compared with whole HBV, in combination with kanamycin (S. aureus [4]; equivalent doses with equal doses of kanamycin (FIG. 15)): None of the optical densities at any time point on the two curves are significantly different; antibacterial activity of the melittin fraction compared with whole HBV (S. aureus [4]; equivalent doses, without antibiotic (FIG. 14)): No significant differences; effect of the peptide alone on the growth of E. coli (E. coli G1108E; used alone at 10 ug/ml or less): no effect; Average optical densities (OD660) [3, 17]: 1.18; Average optical densities (OD660) [3, 18]: 1.19; antibacterial activity [5]: potent antibacterial activity
Gentamicin | − (A (−) indicates a MIC decrease of less than two dilution steps.) | − (A (−) indicates a MIC decrease of less than two dilution steps.) | − (A (−) indicates a MIC decrease of less than two dilution steps.) | + (A (+) indicates a MIC decrease greater than or equal to two dilution steps.) | + (A (+) indicates a MIC decrease greater than or equal to two dilution steps.) | +^ (A (+) indicates a MIC decrease greater than or equal to two dilution steps.) | +^ (A (+) indicates a MIC decrease greater than or equal to two dilution steps.) | − (A (−) indicates a MIC decrease of less than two dilution steps.) |  |  |  |  |  |  |  |  |  |  |  |  | effect of 4 ug/ml HBV on the MIC of the antibiotic (E. coli; E. coli strain 1173): − (A (−) indicates a MIC decrease of less than two dilution steps.); effect of 4 ug/ml HBV on the MIC of the antibiotic (E. coli; E. coli strain 4302): + (A (+) indicates a MIC decrease greater than or equal to two dilution steps.); effect of 4 ug/ml HBV on the MIC of the antibiotic (E. coli; E. coli strain 19033): + (A (+) indicates a MIC decrease greater than or equal to two dilution steps.); effect of 4 ug/ml HBV on the MIC of the antibiotic (E. coli; E. coli strain QC): + (A (+) indicates a MIC decrease greater than or equal to two dilution steps.)
Melittin (1-20) - Gly-Gly-Gly-Gly-Gln-Gln-NH2 [Analogue #7] |  |  |  |  |  |  |  |  | 1 | 20% |  |  |  |  |  |  |  |  |  |  | 
